In article PMC10782225 (The FASEB Journal, 2023):

Key:
human α7β2‐nAChR = target: T1, human α7β2‐nAChR (Homo sapiens, UniProt P17787+P36544); test: cell-based; settings: SEM
T1 construct: expressed in transfected cells; host or cells: Xenopus laevis oocytes, cRNA injection

human α7‐only‐nAChR = target: T2, human α7‐only‐nAChR (Homo sapiens, UniProt P36544); test: cell-based; settings: SEM
T2 construct: expressed in transfected cells; host or cells: Xenopus laevis oocytes, cRNA injection
T2 sequence (P36544 23-502 limits assumed): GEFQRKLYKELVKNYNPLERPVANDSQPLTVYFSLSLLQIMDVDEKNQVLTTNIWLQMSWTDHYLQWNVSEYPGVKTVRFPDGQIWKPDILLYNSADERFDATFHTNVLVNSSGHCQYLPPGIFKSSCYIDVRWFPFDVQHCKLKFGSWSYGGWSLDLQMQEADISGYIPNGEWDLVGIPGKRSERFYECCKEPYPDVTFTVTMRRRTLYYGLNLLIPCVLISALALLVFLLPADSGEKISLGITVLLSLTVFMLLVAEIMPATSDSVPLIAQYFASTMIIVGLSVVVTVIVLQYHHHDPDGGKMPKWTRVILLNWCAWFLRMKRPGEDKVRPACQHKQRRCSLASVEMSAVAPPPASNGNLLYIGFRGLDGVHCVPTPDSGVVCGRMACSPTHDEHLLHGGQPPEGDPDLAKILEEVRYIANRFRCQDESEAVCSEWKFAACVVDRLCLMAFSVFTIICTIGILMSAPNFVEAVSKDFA

T1 sequence (P36544 23-502 limits assumed): as above
T1 sequence (P17787 26-502 limits assumed): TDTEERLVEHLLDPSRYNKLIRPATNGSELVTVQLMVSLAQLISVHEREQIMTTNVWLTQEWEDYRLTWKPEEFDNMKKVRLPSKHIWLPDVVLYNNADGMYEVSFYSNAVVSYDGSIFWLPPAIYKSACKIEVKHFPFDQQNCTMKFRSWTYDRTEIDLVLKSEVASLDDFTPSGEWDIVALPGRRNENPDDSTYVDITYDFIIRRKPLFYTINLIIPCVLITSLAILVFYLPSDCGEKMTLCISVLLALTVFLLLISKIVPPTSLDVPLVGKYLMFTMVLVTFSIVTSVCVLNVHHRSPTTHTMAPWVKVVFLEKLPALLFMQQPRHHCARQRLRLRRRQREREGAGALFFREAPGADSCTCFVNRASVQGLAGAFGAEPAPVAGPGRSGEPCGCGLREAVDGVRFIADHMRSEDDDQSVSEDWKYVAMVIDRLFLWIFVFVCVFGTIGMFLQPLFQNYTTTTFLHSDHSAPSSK

`CC(C)C[C@@H]1NC(=O)[C@H](Cc2ccccc2)NC(=O)[C@@H]2CSSC[C@H](NC(=O)CN)C(=O)N[C@@H](CSSC[C@@H](C(N)=O)NC(=O)[C@H](Cc3ccc(O)cc3)NC(=O)[C@H](CC(=O)O)NC(=O)[C@@H]3CCCN3C(=O)[C@H](CC(N)=O)NC(=O)[C@H](CC(N)=O)NC1=O)C(=O)N[C@@H](CO)C(=O)N[C@@H](Cc1c[nH]cn1)C(=O)N1CCC[C@H]1C(=O)N1CCC[C@H]1C(=O)N2` [α‐CtxPnIC, α‐conotoxin PnIC] showed a Kd (human α7β2‐nAChR; K d α7β2) of 3.3 ± 0.6 nM, a koff (human α7β2‐nAChR; read-out: k off α7β2) of 0.000119 s⁻¹ and a kon (human α7β2‐nAChR; read-out: k on α7β2) of 37200 M⁻¹ s⁻¹. The Kd (human α7‐only‐nAChR) was 1.9 ± 0.4 nM, the koff (human α7‐only‐nAChR; read-out: k off α7‐only) was 0.000122 s⁻¹ and the kon (human α7‐only‐nAChR; read-out: k on α7‐only) was 68700 M⁻¹ s⁻¹.
